Laboratory results reported in ChEMBL document CHEMBL4400566, “Discovery of new ureido benzenesulfonamides incorporating 1,3,5-triazine moieties as carbonic anhydrase I, II, IX and XII inhibitors” (Bioorg Med Chem, 2019).

Each compound was assayed against Carbonic anhydrase 9 (Homo sapiens, UniProt Q16790).
Description: Inhibition of recombinant human carbonic anhydrase 9 incubated for 15 mins prior to testing measured for 5 to 10 secs by phenol red-based stopped-flow CO2 hydration assay

In order of falling Ki:
1. NS(=O)(=O)c1ccc(NC(=O)Nc2nc(Nc3ccc(F)cc3)nc(N3CCOCC3)n2)cc1  185 nM
2. NS(=O)(=O)c1ccc(NC(=O)Nc2nc(Nc3ccc(F)cc3)nc(N3CCCCC3)n2)cc1  151 nM
3. NS(=O)(=O)c1ccc(NC(=O)Nc2nc(Nc3ccc(Cl)c(Cl)c3)nc(N3CCOCC3)n2)cc1  105 nM
4. NS(=O)(=O)c1ccc(NC(=O)Nc2nc(Nc3ccc(Cl)c(Cl)c3)nc(N3CCCCC3)n2)cc1  87.9 nM
5. CN(C)c1nc(NC(=O)Nc2ccc(S(N)(=O)=O)cc2)nc(Nc2ccc(F)cc2)n1  66.9 nM
6. NS(=O)(=O)c1ccc(NC(=O)Nc2nc(Cl)nc(Nc3ccc(F)cc3)n2)cc1  46.8 nM
7. NS(=O)(=O)c1ccc(NC(=O)Nc2nc(Cl)nc(Nc3ccc(Cl)cc3)n2)cc1  44 nM
8. NS(=O)(=O)c1ccc(NC(=O)Nc2nc(Nc3ccc(Cl)cc3)nc(N3CCCCC3)n2)cc1  43.3 nM
9. CN(C)c1nc(NC(=O)Nc2ccc(S(N)(=O)=O)cc2)nc(Nc2ccc(Cl)cc2)n1  38.1 nM
10. NS(=O)(=O)c1ccc(NC(=O)Nc2nc(Nc3ccccc3)nc(N3CCOCC3)n2)cc1  36.9 nM
11. NS(=O)(=O)c1ccc(NC(=O)Nc2nc(Cl)nc(Nc3ccc(Cl)c(Cl)c3)n2)cc1  35.6 nM
12. NS(=O)(=O)c1ccc(NC(=O)Nc2nc(Nc3ccccc3)nc(N3CCCCC3)n2)cc1  32.3 nM
13. NS(=O)(=O)c1ccc(NC(=O)Nc2nc(Nc3ccc(Cl)cc3)nc(N3CCOCC3)n2)cc1  28.6 nM
14. NS(=O)(=O)c1ccc(NC(=O)Nc2nc(Nc3ccc(S(N)(=O)=O)cc3)nc(N3CCCCC3)n2)cc1  28.4 nM
15. NS(=O)(=O)c1ccc(NC(=O)Nc2nc(Nc3ccc(S(N)(=O)=O)cc3)nc(N3CCOCC3)n2)cc1  24.9 nM
16. CN(C)c1nc(NC(=O)Nc2ccc(S(N)(=O)=O)cc2)nc(Nc2ccc(Cl)c(Cl)c2)n1  23.5 nM
17. CN(C)c1nc(NC(=O)Nc2ccc(S(N)(=O)=O)cc2)nc(Nc2ccccc2)n1  19 nM
18. CN(C)c1nc(NC(=O)Nc2ccc(S(N)(=O)=O)cc2)nc(Nc2ccc(S(N)(=O)=O)cc2)n1  14.6 nM
19. NS(=O)(=O)c1ccc(NC(=O)Nc2nc(Cl)nc(Nc3ccccc3)n2)cc1  14.1 nM
20. NS(=O)(=O)c1ccc(NC(=O)Nc2nc(Cl)nc(Nc3ccc(S(N)(=O)=O)cc3)n2)cc1  11.8 nM
